Source: PMC6136390, “Coptisine-induced inhibition of Helicobacter pylori: elucidation of specific mechanisms by probing urease active site and its maturation process” (Journal of Enzyme Inhibition and Medicinal Chemistry, 2018)
Read-outs that look alike come from different tables or passages of the source.

Columns and labels:
H. pylori cells (SS1) = assay: pH shock experiment in vivo (urea-dependent survival of H. pylori); type: cell-based, Helicobacter pylori; details: for surviving bacteria, pH =1: 100 mM HCl pH 1, 5 mM urea; for surviving bacteria, pH =1 / surviving bacteria, pH =7.2: 30 min; for surviving bacteria, pH =7.2: PBS pH 7.2, 5 mM urea; for inhibition at 50 µM / inhibition at 100 µM / inhibition at 200 µM: Helicobacter pylori, 0.5 h
Protocol: H. pylori cells (SS1) were harvested, and the concentration was adjusted to Mc = 4 with saline. Then, bacterial samples were mixed with AHA (positive control, 5 mM) or one of the five alkaloids from Rhizoma Coptidis (coptisine, berberine, jatrorrhizine, epiberberine, and palmatine) in 100 mM HCl (pH = 1) or PBS (pH = 7.2) at 37 °C with or without 5 mM urea. After 30 min of incubation, bacteria were collected by centrifugation at 2000g for 10 min and resuspended in the same volume of PBS. A dilution series (1:1–1:10000) was made from the samples, and the dilutions were plated on solid agar for 5 days to form single colony. Samples from urea-free wells were used as controls. Results are expressed as CFU/mL; the experiment was repeated in triplicate. Inhibition rate was calculated using the following equation: Inhibition rate = (Urea group bacterial mean − X group bacterial mean)/Urea group bacterial mean ×100%, where X represents each experimental group.

jack bean urease (JBU) [1] = target: T1, jack bean urease (JBU) (Canavalia ensiformis, UniProt P07374); assay: Urease inhibition assay in vitro (modified Berthelot method); type: biochemical
T1 construct: purchased Sigma Aldrich (Steineheim, Germany) type III (catalogue number not given)
T1 sequence (P07374 whole entry, looked up): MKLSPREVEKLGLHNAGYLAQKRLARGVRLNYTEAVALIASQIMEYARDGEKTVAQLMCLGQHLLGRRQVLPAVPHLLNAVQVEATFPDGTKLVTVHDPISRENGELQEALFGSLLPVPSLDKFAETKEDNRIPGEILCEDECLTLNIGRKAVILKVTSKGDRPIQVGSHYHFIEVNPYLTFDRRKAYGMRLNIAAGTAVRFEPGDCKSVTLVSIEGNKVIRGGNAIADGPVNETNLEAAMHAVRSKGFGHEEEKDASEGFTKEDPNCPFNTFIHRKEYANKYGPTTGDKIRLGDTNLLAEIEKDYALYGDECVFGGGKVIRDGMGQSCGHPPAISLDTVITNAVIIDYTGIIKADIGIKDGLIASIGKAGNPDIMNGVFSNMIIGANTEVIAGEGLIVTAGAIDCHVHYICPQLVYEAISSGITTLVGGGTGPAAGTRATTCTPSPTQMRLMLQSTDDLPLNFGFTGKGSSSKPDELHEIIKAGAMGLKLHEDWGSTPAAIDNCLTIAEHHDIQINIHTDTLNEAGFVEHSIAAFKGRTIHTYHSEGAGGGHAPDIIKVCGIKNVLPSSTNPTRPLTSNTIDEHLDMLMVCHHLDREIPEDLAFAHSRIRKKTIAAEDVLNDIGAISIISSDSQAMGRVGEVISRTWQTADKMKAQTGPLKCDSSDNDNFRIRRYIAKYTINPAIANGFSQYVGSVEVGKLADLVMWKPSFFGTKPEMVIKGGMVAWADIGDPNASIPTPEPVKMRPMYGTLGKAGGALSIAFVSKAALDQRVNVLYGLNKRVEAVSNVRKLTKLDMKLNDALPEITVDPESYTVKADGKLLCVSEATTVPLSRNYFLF
Protocol: This assay was performed using the modified Berthelot method (phenol-hypochlorite) in 96 well plates. At the beginning of each reaction, different concentrations of urease solution and 150 mM urea as a substrate were mixed in 20 mM HEPES buffer (pH 7.5) at 37 °C. After a 20-min reaction, urease activity was tested by measuring the concentration of ammonia produced by the reaction at 595 nm using the microplate reader (Thermo Fisher Multiskan FC, Instruments, Inc., USA) at ambient temperature. […] One unit (U) of urease activity was defined as the amount of urease required to catalyse 1 μmol urea per min. These experiments were repeated in triplicate.
Coptisine’s ability to inhibit urease activity was determined by measuring amounts of ammonia produced using the modified Berthelot method described above. The assay mixture, which contained 200 μL of enzyme and 200 μL of coptisine solution (0.16–2.51 mM) in 200 μL of 20 mM HEPES buffer (pH 7.5), was incubated for 20 min at 37 °C in 96-well plates. The reaction was then initiated by adding urea solution (150 mM) to determine residual urease activity. AHA was used as a standard urease inhibitor. […] Residual activity (RA %) for each assay was calculated using the following equation: RA % = (activity with inhibitors/activity without inhibitors) × 100%. […]

H. pylori urease (HPU) = target: T2, H. pylori urease (HPU) (Helicobacter pylori, UniProt P69996); assay: Progress curve analysis; type: biochemical; details: 0.63, 1.25 and 2.50 mM Cop, non-pre-incubated and pre-incubated systems
T2 construct: Crude HPU was obtained according to the method described by Matsubara et al; endogenous in cells; host or cells: cultured Helicobacter pylori (strain not specified)
T2 sequence (P69996 whole entry): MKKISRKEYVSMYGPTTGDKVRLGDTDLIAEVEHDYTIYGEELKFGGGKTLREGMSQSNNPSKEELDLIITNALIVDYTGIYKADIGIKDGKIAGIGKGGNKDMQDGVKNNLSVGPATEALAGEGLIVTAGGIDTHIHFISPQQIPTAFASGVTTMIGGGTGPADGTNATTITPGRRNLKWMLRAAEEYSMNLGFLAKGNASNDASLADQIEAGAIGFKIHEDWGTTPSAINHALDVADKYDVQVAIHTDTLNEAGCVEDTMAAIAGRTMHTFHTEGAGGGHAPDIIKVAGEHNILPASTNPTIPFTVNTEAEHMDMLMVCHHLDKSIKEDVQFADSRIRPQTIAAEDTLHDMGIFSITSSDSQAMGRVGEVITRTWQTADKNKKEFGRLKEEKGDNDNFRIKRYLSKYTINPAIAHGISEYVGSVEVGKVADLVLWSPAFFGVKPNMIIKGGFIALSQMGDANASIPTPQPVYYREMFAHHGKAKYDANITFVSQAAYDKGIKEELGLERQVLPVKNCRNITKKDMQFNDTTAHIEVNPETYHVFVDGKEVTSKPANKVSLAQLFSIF
T2 sequence (P14916 whole entry, further chain): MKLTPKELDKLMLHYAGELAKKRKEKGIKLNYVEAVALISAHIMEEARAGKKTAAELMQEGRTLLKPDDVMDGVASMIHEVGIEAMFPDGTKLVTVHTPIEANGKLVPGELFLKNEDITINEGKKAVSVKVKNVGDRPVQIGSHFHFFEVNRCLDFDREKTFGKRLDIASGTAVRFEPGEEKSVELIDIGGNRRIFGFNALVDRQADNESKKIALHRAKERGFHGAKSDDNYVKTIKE
Protocol: (§1) Reaction progress curves for urea hydrolysis in the non-pre-incubated and pre-incubated systems were generated by plotting the concentration of ammonia generated as a function of the incubation time P(t) in the absence or presence of coptisine. Coptisine and urease were mixed immediately before the reaction in the non-pre-incubated system and were mixed and incubated for 20 min before urea was added to initiate the reaction in the pre-incubated system. Urease activity relative to the standard assay was determined at different time intervals.

jack bean urease (JBU) [2] = target: T1, jack bean urease (JBU); assay: Progress curve analysis; type: biochemical; details: 0.63, 1.25 and 2.50 mM Cop, non-pre-incubated and pre-incubated systems
Protocol: as §1

UreG dimers = target: T3, UreG dimers (Helicobacter pylori, UniProt Q09066); assay: Nickel uptake assay (dialysis, atomic absorption spectroscopy); type: biochemical; details: 25, 50 and 100 μM coptisine, 2.5 μM UreG dimer, versus control, all p < 0.01
T3 construct: HisSUMO (N, cleaved yes); made in house; host or cells: Escherichia coli
T3 sequence (Q09066 whole entry): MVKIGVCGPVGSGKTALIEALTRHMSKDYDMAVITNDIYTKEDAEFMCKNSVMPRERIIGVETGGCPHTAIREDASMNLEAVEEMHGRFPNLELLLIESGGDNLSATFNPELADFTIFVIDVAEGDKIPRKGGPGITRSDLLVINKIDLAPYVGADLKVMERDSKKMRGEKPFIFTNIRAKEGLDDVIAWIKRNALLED
Protocol: UreG dimers were obtained using GTPγS as described previously. Briefly, the UreG dimer was purified by incubating apo-UreG at 3 mg/mL on ice with 1 mM GTP, 2 mM MgSO4, and 0.5 mM NiSO4 for 15 min. Nickel-charged UreG dimers were then separated from excess GTP and nickel using a Sephadex G25 desalting column. UreG dimers (2.5 μM) were injected into dialysis bag (6–8 kDa) and mixed with different concentrations of coptisine (25, 50, or 100 μM) or DMSO (control). The dialysis bag was sealed and placed in beakers containing UreG dimer buffer at 37 °C in a water bath. After 30 min, dialysis bags were placed in fresh buffer and the sample was incubated for 2 h at 4 °C with continuous shaking to initiate dialysis. The dialysis process was repeated three times. Samples were then removed and nickel concentrations were measured using atomic absorption spectroscopy (AA-7000, SHIMADZU). Nickel concentration was determined by comparing measurements against a standard curve of known nickel concentrations.

[3] = pH 1, read-out: Inhibition rate, pH =1
[4] = pH 7.2, read-out: Inhibition rate, pH =7.2

c1c2c(cc3c1OCO3)-c1cc3ccc4c(c3c[n+]1CC2)OCO4 [Coptisine]
surviving bacteria, pH =1 (H. pylori cells (SS1); 50 μM compound): 129 ± 31 CFU/mL | surviving bacteria, pH =7.2 (H. pylori cells (SS1); 50 μM compound): 1.0 ± 0.2 ×10^4 CFU/mL | surviving bacteria, pH =1 (H. pylori cells (SS1); 100 μM compound): 25 ± 6 CFU/mL | surviving bacteria, pH =7.2 (H. pylori cells (SS1); 100 μM compound): 1.3 ± 0.3 ×10^4 CFU/mL | surviving bacteria, pH =1 (H. pylori cells (SS1); 200 μM compound): 7 ± 3 CFU/mL | surviving bacteria, pH =7.2 (H. pylori cells (SS1); 200 μM compound): 1.2 ± 0.3 ×10^4 CFU/mL | inhibition at 50 µM (H. pylori cells (SS1); [3]): 72.7% | inhibition at 100 µM (H. pylori cells (SS1); [3]): 94.7% | inhibition at 200 µM (H. pylori cells (SS1); [3]): 98.5% | inhibition at 50 µM (H. pylori cells (SS1); [4]): 0% | inhibition at 100 µM (H. pylori cells (SS1); [4]): 0% | inhibition at 200 µM (H. pylori cells (SS1); [4]): 0% | IC50 (jack bean urease (JBU) [1]): 260 ± 20 µM | binding behaviour from reaction progress curves, HPU (H. pylori urease (HPU)): slow-binding inhibition | binding behaviour from reaction progress curves, JBU (jack bean urease (JBU) [2]): slow-binding inhibition | bound nickel concentrations of UreG dimers (UreG dimers): markedly decreased
